The subject of test [1] is Pan02 tumors. Put plainly: Low dose warfarin in drinking water, syngenic orthotopic model. Particulars: warfarin 0.5 mg/L drinking water. Type of test: in vivo, mouse. Here is the method: (FIG. 23A) Primary tumor burden after therapy with warfarin. Therapy was initiated when implanted tumors were visible by ultrasound (˜10 mm^3) and consisted of control (normal drinking water) or warfarin, administered in the drinking water at 0.5 mg/L (immunocompetent mice: Pan02 (n=4, control; 3, warfarin), KIC (n=10, control; 8, warfarin)) or 1 mg/L (Panc-1 (n=10, control; 8, warfarin), AsPC-1 (n=8, control; 6, warfarin), Capan-1 (n=10, control; 7, warfarin)) and continued for 2-4 weeks until control mice were moribund. Therapy in KIC mice was initiated at 3 weeks of age and continued for 4 weeks. (FIG. 23B) Metastases were determined grossly upon sacrifice and confirmed by histological evaluation of the liver. […] Incidence of metastasis is also indicated. […] Tumor volume determined by serial ultrasound. […] Therapy with mAb 10C9 (250 μg 2×/week) was initiated when tumors were established as above and persisted for 4 weeks. […] Error bars indicate s.e.m.
Animal studies. […] Mice with established tumors, as determined by sonography were randomized to receive normal drinking water or water containing 1 mg/L (˜3.0 μM) warfarin for experiments in immunocompromised mice and 0.5 mg/L (˜1.5 μM) in experiments in immunocompetent animals with or without gemcitabine 25 mg/kg twice weekly depending on experimental design.

The test system of test [2] is AsPC-1, Mia PaCa-2, and Capan-1 cells. Put plainly: Soft agar anchorage-independent growth assay. Type of test: cell-based, human. Particulars: warfarin 2 μM, 14 days; Axl-expressing cells. Here is the method: FIGS. 25A-I. Axl inhibition reduces colony formation and enhances chemotherapy. (FIGS. 25A-C) parental Mia PaCa-2 cells or Mia PaCa-2 cells stably transfected with shRNA targeting Axl (Mia shAxl) were grown as spheroids in matrigel for 7 days in the presence or absence of warfarin (200 ng/ml), n=4/condition. Mia PaCa-2 cell colonies form large stellate colonies characteristic of invasive tumor growth. Colonies and cognate cell projections were imaged (FIG. 25A) with a Nikon Phase contrast microscope using 40× and 200× magnification. Mean total colony number (FIG. 25B) and total colony area+/−s.d. (FIG. 25C) reflective of invasive growth were calculated using Image J image analysis. Scale bar, 100 μm. ****, p<0.001 vs Mia PaCa-2 NT; ##, p<0.01; ###, p<0.005. by ANOVA with Tukey's MCT. […] (FIG. 25E) liver metastases were quantified after intrasplenic injection of C5LM2 cells. […] Mice were sacrificed when control treated animals were moribund and primary and metastatic burden was determined. […]
Anchorage-independent growth assays were performed by coating 12 well plates with 0.5-0.75% agar. […] Fresh media and drug were added twice weekly and colonies were measured by light microscopy at 2 weeks; assays were performed in quadruplicate.

As to `CC(=O)CC(c1ccccc1)c1c(O)c2ccccc2oc1=O` (racemic) [Warfarin], in test [1], the primary tumor growth result is reported as “reduced primary tumor growth”. Moreover, the anchorage independent growth entry in test [2] is reported as “inhibited”.

Values taken from US9986723B2, “Screen and use of therapeutics for pancreatic ductal adenocarcinoma” (The Board of Regents of the University of Texas System, priority 2014, dated 2018).
